Here are results for 1 compound from patent publication US20260373274A1, “PEPTIDE-LINKED DRUG DELIVERY SYSTEM” (priority 2022, published 2026).

Data set [1] in a line: Serum biochemistry. It is filed as in vivo, female BALB/c mice. As to conditions: i.v. weekly for 3 weeks, CIS 10 mg/kg. The text has this:
(§1) At the end of a 3-week treatment, mice were euthanized. The organs/tissues were harvested, fixed in 10% neutral buffered formalin for 2 days. Bones were decalcified in a formic acid solution (Surgipath Decalcifier I; Leica Biosystems, Weltzar, Germany). The samples were then embedded in paraffin, sectioned (5 μm), and stained with H&E for examination by an ACVP board certified anatomic pathologist.
(§2) Hematology and biochemistry—Blood samples were collected via cardiac puncture. A complete blood count, including red blood cell, white blood cell, reticulocyte and platelet counts, with an automated differential leukocyte count, was performed using an IDEXX Procyte DX hematology analyzer (iDEXX, Westbrook. ME). Blood smears were prepared, stained with modified Wright's stain, examined in a blinded fashion by a board-certified veterinary clinical pathologist (T.S.), and imaged using a Nikon Eclipse TE2000-U fluorescent microscope equipped with a photometrics CoolSNAP HQ^2 camera (Nikon Corporation, Tokyo, Japan). The blood was also centrifuged (1,500×G) for 15 min to obtain the serum for biochemical analysis using a Beckman Coulter AU680 analyzer (Beckman Coulter, Brea, CA).

Data set [2] relates to Renca/GFP-Luc tumors. The experiment in a line: Kidney cancer treatment, orthotopic Renca/GFP-Luc syngeneic model. In kind it is in vivo, female BALB/c mice; murine tumor cells. The protocol: Evaluation of DM1-Bdd for Kidney cancer treatment—Renca/GFP-Luc cells ([…]) in PBS (3 μL) were orthotopically implanted into the kidney capsules of 7- to 9-week-old female BALB/c mice (Jackson Laboratory, Bar Harbor, ME) as previously described. The tumor progression was confirmed by bioluminescence imaging. […] The animals were monitored for tumor growth inhibition and survival as described above. Additional mice were used for histopathological analysis (n=4/group).
(§3) Slides were then counterstained with Hematoxylin.

Data set [3] has as its system orthotopic human UMUC-3 tumors. Briefly: Therapeutic efficacy for treating BC, orthotopic UMUC-3/GFP-Luc xenograft.
From the text: These animals were immediately euthanized I week after the completion of the treatment schedule.
as §3

In data set [4] the test system is UMUC-3. Briefly: Cell viability and cytotoxicity assay. It is filed as cell-based, human. Particulars: 72 h. The protocol:
(§4) Cell viability and cytotoxicity assay—Cancer cells (3×10^3/well) were seeded on a flat bottom 96-well plate overnight. […] CellTiter Glo reagent (Promega, Madison, WI) was added in each well (50 μL). The luminescence generated was recorded using a microplate reader (Tecan US Inc., Morrisville, NC). The dose response curves were plotted, and the half maximal inhibitory concentrations (IC50 values) were calculated using Graph Pad Prism 6.0 software.

Data set [5] deals with major organs (liver, spleen, heart, lungs, and kidneys). The experiment in a line: Necropsy, histopathology of major organs. It is filed as in vivo, female BALB/c mice.
From the text: as §1

The subject of data set [6] is kidney injury molecule-1 (KIM-1) and neutrophil gelatinase-associated lipocalin (NGAL). Briefly: Nephrotoxicity studies, urinary renal injury biomarkers by ELISA. It is filed as in vivo, BALB/c mice. As to conditions: single i.v. dose; 3 days. The procedure:
The level of the acute renal injury biomarkers, neutrophil gelatinase-associated lipocalin (NGAL) and kidney injury molecule-1 (KIM-1) in the urine samples, were measured using ELISA assays according to the manufacturer's instructions (R&D Systems, Minneapolis, MN). […] All the animals (n=3/group) were euthanized at the end of the treatment and the kidneys were collected and fixed in 10% neutral buffered formalin. The tissues were then processed, embedded in paraffin, sectioned, and stained with H&E. Immunohistochemistry (IHC) for kidney injury (NGAL and KIM-I) was also performed.
(An ELISA detects its analyte on a solid surface through an enzyme-linked reagent.)

Data set [7] relates to panel of BC cell lines. Briefly: Cell viability and cytotoxicity assay, panel. It is filed as cell-based. The procedure:
as §4

Data set [8] relates to Renca. The experiment in a line: Cell viability and cytotoxicity assay. In kind it is cell-based, murine. As to conditions: 72 h. The protocol:
as §4

A short description of data set [9]: Hematology, complete blood count. In kind it is in vivo, female BALB/c mice. Particulars: i.v., 0.75 mg/kg weekly for 3 weeks. The protocol: Necropsy—Seven- to 9-week-old female BALB/c mice (n=4/group) were treated weekly with PBS, DM1, DM1-peptide (0.75 mg/kg of drug content), or cisplatin (10 mg/kg) via tail-vein injection (150 μL). At the end of a 3-week treatment, mice were euthanized. The organs/tissues were harvested, fixed in 10% neutral buffered formalin for 2 days. Bones were decalcified in a formic acid solution (Surgipath Decalcifier I; Leica Biosystems, Weltzar, Germany). The samples were then embedded in paraffin, sectioned (5 μm), and stained with H&E for examination by an ACVP board certified anatomic pathologist.
as §2

Setting [10] is: i.v., 0.75 mg/kg weekly for 3 weeks.

In the case of `COc1cc2cc(c1Cl)N(C)C(=O)C[C@H](OC(=O)[C@H](C)N(C)C(=O)CCS)[C@]1(C)O[C@H]1[C@H](C)[C@@H]1C[C@@](O)(NC(=O)O1)[C@H](OC)/C=C/C=C(\C)C2` [DM1, N2′-deacetyl-N2′-(3-mercapto-1-oxopropyl)-maytansine], in [1] (DM1 0.75 mg/kg), the “muscle injury (CK activity)” value was “induced muscle injury (CK activity)”. In addition, in [1] (DM1/DM1-Bdd 0.75 mg/kg), the “hepatotoxicity: release of ALP, ALT, and AST” value was “increases in ALT and AST activities”; the urea nitrogen/creatinine ratio entry was “increases in ALT and AST activities and BUN/creatinine ratios”. Moreover, in data set [2] (i.v. or i.t., 0.75 mg/kg weekly for 3 weeks), the “survival, i.v. or i.t.” value is given as “died”. The “tumor in kidneys by histological examination” value in [2] (one week after completing the treatment course) is “large and accompanied with an infiltration of mononuclear cells”. The “anti-tumor activity of i.v. DM1-Bdd versus i.v. DM1” value in [3] (bioluminescence imaging during 3 once-per-week treatments) is reported as “similar”. Besides, in [3] (setting [10]), the “animal survival compared to i.t. MIT” value is “prolonged animal survival”, the “survival after 100 days” value is reported as 0% and the “tumor growth inhibition compared to i.t. MIT” value is listed as “more effective in inhibiting tumor growth”. Besides, in [4], the “IC50 against UMUC-3” value is “nanomolar (nM) range”; the “potency against UMUC-3 compared to other chemotherapeutics” value was “more potent than cisplatin (CIS), doxorubicin (DOX) and mitomycin (MIT), and as effective as gemcitabine (GEM)”; the “potency compared to DOX” value was “more potent than DOX”. Moreover, in [5] (i.v. weekly for 3 weeks), the overall toxicity entry was “evidences of hepatic and renal injury”. In data set [5] (setting [10]), the “extramedullary hematopoiesis (EMH), splenic and hepatic” value was “Increased splenic and hepatic EMH”. In addition, the “induction of KIM-1 and/or NGAL, 3 days” value in [6] is recorded as “continued induction of KIM-1 and/or NGAL”. Further, the “fold more potent than commonly used ITC drugs, including MIT, DOX and CIS” value in [7] is listed as 100 fold. The “effectiveness against Renca cell line” value in [8] is on record as “effective”. Further, in data set [9], the inflammatory response entry is “inflammatory response characterized by increased proportions of neutrophils, monocytes, and platelets”; the reticulocytes result is “induced reticulocytosis without apparent anemia”.
